Data: US12281334B2, “Multi donor stem cell compositions and methods of making same” (Children's Hospital Medical Center, priority 2017, dated 2025)
“Also recorded” adds a separate entry of the source.

What was measured:
[1] = system: fat-treated hepatocytes prepared from 11 iPSCs pool; experiment: Drop-out assay using induced hepatocytes treated with oleic acid and troglitazone; format: cell-based, human; details: eDNA based drop-out assay; oleic acid treated hepatocyte pool from eleven donors
Procedure: FIG. 23. Drop-out assay using induced hepatocytes treated with oleic acid and troglitazone. Drug screening assays for fat accumulation and drug treatment were performed using hepatocytes prepared from iPSC pools.
(§1) In one aspect, a “Drop out assay” is disclosed. In this aspect, genomic DNA in environments (environmental DNA, or “eDNA”), a form of cell-free DNA (cfDNA), exists in the environment to determine biodiversity such as sea and soil. Detection of circulating tumor derived cfDNA is an evolving component of cancer precision medicine. […] Remarkably, when applied into pooled stem cell culture, quantitative detection of respective donor correlates with the cell ratio in culture. Therefore, Applicant concluded eDNA-based noninvasive donor identification method is effective decoding strategy for pooled stem cell culture by eDNA in culture supernatant. PCR of eDNA in culture supernatant can be carried out using donor-specific SNP primers. Each SNP primer may be standardized, and the donor ratio of the iPSC pool can be estimated using eDNA contained in the culture supernatant (see FIG. 19). As a result, the cell ratio may be successfully determined by PCR of eDNA in the medium (see FIG. 20). […] In order to confirm the sensitivity of eDNA donor identification, Applicant monitored cell ratio change by drug selection. […]

[2] = system: pooled iPSCs (two fluorescently labeled donors and one puromycin resistant donor); experiment: Donor ratio change by drug selection monitored by eDNA (drop out assay); format: cell-based, human; details: puromycin containing media; fluorescence imaging and eDNA donor identification PCR
Text: FIG. 22. Donor ratio change monitored by gDNA in the culture medium. To confirm the eDNA donor identification, Applicant monitored cell ratio change by drug selection. Two types of fluorescently labeled cells and puromycin resistant cells were used as a positive control.
as §1

Cc1c(C)c2c(c(C)c1O)CCC(C)(COc1ccc(CC3SC(=O)NC3=O)cc1)O2 (centres unmarked) [troglitazone]
sensitivity to drug induced hepatotoxicity, high fat accumulation risk donor cells vs healthy donor derived cells [1]: significantly more sensitive

COc1ccc(C[C@H](N)C(=O)N[C@H]2[C@@H](O)[C@H](n3cnc4c(N(C)C)ncnc43)O[C@@H]2CO)cc1 [puromycin]
fate of non-resistant iPSCs under drug selection [2]: non-resistant iPSCs were disappeared on the second day of treatment; also recorded: two other donors died due to puromycin toxicity
